Assay results published in patent US10947242B2, “[1,2,4]triazolo[1,5and#8208;A]pyrimidine compounds as PDE2 inhibitors” (Janssen Pharmaceutica NV, priority 2016, dated 2021).
Where “and” joins values, the source holds several entries; their conditions need not be identical. Equal entries are not always repeated. Where two headings read alike, the source gives them in different places.

What was measured:
[1] = target: T1, Human recombinant PDE2A (hPDE2A) (Homo sapiens, UniProt O00408); assay: In vitro assay PDE2A (SPA, 3H-cGMP hydrolysis); type: biochemical; settings: for IC50: read-out: hPDE2A pIC50 (converted); for Emax: read-out: hPDE2A Emax
T1 construct: His tag (inferred from metal chelate purification); made in house; host or cells: Sf9 insect cells (baculovirus)

[2] = target: T2, Human recombinant PDE3A (hPDE3A) (Homo sapiens, UniProt Q14432); assay: In vitro assay PDE3A (SPA, 3H-cAMP hydrolysis); type: biochemical;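 note: the method names PDE3A and the table heading PDE3B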
T2 construct: purchased Scottish Biomedical; host or cells: Sf9 insect cells
Procedure, shortened: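 Human PDE3A, cloned from brain, as partially purified Sf9 lysate. Substrate 0.4 μM cAMP plus [3H]-cAMP (2.4 μCi/ml final) in 50 mM Tris pH 7.8, 8.3 mM MgCl2, 1.7 mM EGTA, 60 min at room temperature, 1% DMSO final. Hydrolysis read by SPA scintillation counting against no-enzyme blanks and DMSO controls.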

[3] = target: T3, Human recombinant PDE10A (hPDE10A) (Homo sapiens, UniProt Q9Y233); assay: In vitro assay PDE10A, human clone (SPA, 3H-cAMP hydrolysis); type: biochemical; settings: human clone (h), default
T3 construct: His tag (inferred from metal chelate purification); made in house; host or cells: Sf9 insect cells (baculovirus)
Procedure, shortened: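 Human recombinant PDE10A was expressed in Sf9 cells via baculovirus and incubated with compound in 50 mM Tris pH 7.8, 8.3 mM MgCl2, 1.7 mM EGTA. Substrate was 60 nM cAMP plus 0.008 μCi 3H-cAMP for 60 min at room temperature, read by SPA scintillation counting. Controls used 1% DMSO, and blanks omitted enzyme.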

[4] = target: T4, PDE2A (Rattus norvegicus, UniProt Q01062); assay: PDE2 occupancy by test compounds, ex-vivo autoradiography with [3H]B-17a; type: in vivo, Male Wistar rats; settings: route PO (oral)
T4 construct: Twenty μm-thick striatal sections were cut; from tissue; host or cells: rat brain, striatal sections
T4 sequence (Q01062 1-928): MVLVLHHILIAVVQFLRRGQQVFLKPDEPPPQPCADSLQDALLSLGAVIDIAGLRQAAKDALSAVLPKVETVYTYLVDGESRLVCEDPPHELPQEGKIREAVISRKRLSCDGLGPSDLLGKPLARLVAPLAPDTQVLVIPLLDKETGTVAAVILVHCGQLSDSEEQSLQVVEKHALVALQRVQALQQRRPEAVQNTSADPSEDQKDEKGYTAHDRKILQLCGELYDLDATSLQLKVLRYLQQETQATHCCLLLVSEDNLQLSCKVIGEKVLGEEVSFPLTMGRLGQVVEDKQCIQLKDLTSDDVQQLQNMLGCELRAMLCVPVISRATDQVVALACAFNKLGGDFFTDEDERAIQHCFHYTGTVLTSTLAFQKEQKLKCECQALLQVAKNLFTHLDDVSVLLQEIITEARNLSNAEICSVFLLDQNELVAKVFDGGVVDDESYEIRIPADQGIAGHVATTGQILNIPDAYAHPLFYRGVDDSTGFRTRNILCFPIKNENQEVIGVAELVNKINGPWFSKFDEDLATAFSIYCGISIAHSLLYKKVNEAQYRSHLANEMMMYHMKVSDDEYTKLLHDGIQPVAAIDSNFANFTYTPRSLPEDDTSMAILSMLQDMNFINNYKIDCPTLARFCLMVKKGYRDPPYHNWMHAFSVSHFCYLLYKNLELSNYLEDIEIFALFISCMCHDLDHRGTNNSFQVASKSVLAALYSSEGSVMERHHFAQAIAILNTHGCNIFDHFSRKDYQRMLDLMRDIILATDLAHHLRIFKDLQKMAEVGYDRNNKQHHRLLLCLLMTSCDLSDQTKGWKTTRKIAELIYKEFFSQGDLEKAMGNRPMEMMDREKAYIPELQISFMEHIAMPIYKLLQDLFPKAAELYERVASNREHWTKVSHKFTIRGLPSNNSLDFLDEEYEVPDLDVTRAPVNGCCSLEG

[5] = test system: hippocampal Shaffer collateral-CA1 synapses; settings: for Basal synaptic transmission, change versus vehicle-treated control during baseline pre-tetanus: urethane-anesthetized rats, SC-CA1 fEPSP slope; for Enduring (>2 h) synaptic potentiation after HFS (fEPSP slope, % of pre-tetanus baseline): vehicle level 119±4%; for fEPSP slope at 0-30 min after completion of the tetanization: vehicle level 139±1%

T1 sequence (O00408 whole entry): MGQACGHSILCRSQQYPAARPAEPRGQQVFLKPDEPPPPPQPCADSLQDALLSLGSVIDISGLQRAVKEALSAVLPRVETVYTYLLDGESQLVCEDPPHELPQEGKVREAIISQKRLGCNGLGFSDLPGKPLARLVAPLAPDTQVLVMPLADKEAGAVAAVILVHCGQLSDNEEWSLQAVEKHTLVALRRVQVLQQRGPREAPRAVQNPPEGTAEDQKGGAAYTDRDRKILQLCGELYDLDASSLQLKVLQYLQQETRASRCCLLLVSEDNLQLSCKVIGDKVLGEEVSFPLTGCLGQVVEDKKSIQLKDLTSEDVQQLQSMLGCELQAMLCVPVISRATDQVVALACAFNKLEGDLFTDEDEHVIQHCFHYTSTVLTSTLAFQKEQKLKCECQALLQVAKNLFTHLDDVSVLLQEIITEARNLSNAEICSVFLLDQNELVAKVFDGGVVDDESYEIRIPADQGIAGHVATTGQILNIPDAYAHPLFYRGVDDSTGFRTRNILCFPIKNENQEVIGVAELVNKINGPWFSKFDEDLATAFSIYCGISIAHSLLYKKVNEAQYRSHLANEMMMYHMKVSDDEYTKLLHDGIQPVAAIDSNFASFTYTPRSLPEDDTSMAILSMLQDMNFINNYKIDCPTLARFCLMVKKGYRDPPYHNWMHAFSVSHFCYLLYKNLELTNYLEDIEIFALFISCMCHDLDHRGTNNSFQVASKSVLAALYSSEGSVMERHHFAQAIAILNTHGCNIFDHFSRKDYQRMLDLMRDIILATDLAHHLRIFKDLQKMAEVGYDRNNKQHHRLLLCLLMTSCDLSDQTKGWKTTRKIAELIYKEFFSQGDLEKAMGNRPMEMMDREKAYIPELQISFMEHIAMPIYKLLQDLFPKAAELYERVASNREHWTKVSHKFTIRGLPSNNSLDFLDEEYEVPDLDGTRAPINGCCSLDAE
T3 sequence (Q9Y233 267-1055): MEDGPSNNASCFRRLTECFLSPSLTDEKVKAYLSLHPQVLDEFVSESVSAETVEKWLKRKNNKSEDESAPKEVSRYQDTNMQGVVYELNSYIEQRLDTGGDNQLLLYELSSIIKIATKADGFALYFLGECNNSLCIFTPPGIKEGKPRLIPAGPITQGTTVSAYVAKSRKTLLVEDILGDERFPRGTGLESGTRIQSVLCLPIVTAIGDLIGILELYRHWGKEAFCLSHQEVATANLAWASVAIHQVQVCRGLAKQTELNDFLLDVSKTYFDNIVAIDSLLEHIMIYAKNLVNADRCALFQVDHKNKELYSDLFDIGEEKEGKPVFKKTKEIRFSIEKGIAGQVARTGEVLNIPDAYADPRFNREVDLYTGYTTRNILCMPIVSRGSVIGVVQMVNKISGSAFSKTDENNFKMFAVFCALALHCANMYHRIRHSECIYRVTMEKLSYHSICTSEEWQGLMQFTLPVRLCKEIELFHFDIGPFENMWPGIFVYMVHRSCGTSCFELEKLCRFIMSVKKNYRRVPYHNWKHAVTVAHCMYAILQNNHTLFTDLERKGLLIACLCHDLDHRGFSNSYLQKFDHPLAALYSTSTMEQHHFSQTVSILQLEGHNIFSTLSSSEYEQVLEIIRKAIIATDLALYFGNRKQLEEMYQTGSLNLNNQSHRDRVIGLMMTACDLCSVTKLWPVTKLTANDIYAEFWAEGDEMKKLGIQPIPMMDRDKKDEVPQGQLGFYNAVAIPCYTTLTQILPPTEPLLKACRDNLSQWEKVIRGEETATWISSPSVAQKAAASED
T2 sequence (Q14432 whole entry): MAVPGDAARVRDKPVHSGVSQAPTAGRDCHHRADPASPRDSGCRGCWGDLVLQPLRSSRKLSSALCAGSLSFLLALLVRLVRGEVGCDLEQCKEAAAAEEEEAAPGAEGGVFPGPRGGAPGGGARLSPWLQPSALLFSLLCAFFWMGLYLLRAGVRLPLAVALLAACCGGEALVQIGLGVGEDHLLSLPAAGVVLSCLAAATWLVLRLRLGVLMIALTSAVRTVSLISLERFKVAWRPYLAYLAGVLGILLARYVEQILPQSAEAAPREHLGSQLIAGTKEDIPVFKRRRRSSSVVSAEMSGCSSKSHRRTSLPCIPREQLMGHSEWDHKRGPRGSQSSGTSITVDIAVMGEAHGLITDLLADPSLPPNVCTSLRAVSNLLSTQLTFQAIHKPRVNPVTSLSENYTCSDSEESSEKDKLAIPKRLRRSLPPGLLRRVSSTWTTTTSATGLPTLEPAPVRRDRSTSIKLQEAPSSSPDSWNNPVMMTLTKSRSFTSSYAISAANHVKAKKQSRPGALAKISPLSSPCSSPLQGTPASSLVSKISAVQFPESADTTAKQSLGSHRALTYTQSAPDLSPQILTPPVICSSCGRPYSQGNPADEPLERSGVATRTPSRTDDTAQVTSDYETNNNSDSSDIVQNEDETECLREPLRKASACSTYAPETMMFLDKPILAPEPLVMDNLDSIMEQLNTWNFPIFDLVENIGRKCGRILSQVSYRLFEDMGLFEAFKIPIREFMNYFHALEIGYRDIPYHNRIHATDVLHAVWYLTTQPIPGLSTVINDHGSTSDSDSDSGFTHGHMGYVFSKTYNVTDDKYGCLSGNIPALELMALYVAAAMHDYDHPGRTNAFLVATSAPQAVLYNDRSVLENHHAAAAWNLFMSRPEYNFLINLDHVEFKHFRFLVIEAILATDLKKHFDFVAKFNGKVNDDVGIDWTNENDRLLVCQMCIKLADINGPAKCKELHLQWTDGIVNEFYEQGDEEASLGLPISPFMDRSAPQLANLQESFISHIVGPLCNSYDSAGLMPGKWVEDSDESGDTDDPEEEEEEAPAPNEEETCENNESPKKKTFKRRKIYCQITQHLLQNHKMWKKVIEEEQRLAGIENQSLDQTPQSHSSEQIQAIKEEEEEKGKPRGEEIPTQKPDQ

Compound `COc1cc(C(=O)N2CC[C@@H](C)[C@H](c3cc(C(F)F)nc4ncnn34)C2)cc(C)n1` [Compound 110] has an IC50 ([1]; human recombinant PDE2A, 10 μM cGMP substrate) of 0.955 nM, an Emax ([1]; human recombinant PDE2A) of 101% and an Emax [1] of 100%. The IC50 [1] was 1.32 nM, the IC50 ([2]; hPDE3B pIC50, read-out: pIC50 (converted)) was 3390 nM and the Emax ([2]; read-out: hPDE3B Emax, read-out: Emax) was 76%. For the same compound, the Emax ([3]; read-out: hPDE10A2 Emax) was 98%, the IC50 ([3]; read-out: hPDE10A2 pIC50 (converted)) was 72.4 nM and 112 nM and the receptor occupancy at 10 mg/kg ([4]; po, 10 mg/kg, percentage receptor occupancy, ex-vivo autoradiography, striatum) was 75%. For the same compound, the ED50 ([4]; drug dose producing 50% receptor occupancy, read-out: PDE Occupancy ED50) was 8.3 mg/kg, the “Basal synaptic transmission, change versus vehicle-treated control during baseline pre-tetanus” value ([5]; 20 mg/kg subcutaneous) was “+8%” and the “Enduring (>2 h) synaptic potentiation after HFS (fEPSP slope, % of pre-tetanus baseline)” value ([5]; 20 mg/kg subcutaneous) was 137±8%. For the same compound, the “fEPSP slope at 0-30 min after completion of the tetanization” value ([5]; 20 mg/kg subcutaneous, p<0.05) was 153±5%, the “Basal synaptic transmission, change versus vehicle-treated control during baseline pre-tetanus” value ([5]; 40 mg/kg subcutaneous) was 9% and the “fEPSP at 90-120 min after tetanization” value ([5]; 40 mg/kg subcutaneous, vehicle level 106±13%, p<0.05) was 129±5%. The “fEPSP at 60-90 min after tetanization” value ([5]; 40 mg/kg subcutaneous, vehicle level 116±9, p<0.05) was 137±5%, the “Enduring (>2 h) synaptic potentiation after HFS (fEPSP slope, % of pre-tetanus baseline)” value ([5]; 40 mg/kg subcutaneous) was 142±5% and the “fEPSP at 30-60 min after tetanization” value ([5]; 40 mg/kg subcutaneous, vehicle level 125±6, p<0.05) was 146±6%. For the same compound, the “fEPSP slope at 0-30 min after completion of the tetanization” value ([5]; 40 mg/kg subcutaneous, p<0.05) was 155±4%, the “Overall effect on basal synaptic transmission and LTP in vivo” value ([5]; 20 and 40 mg/kg subcutaneous, anesthetized rats) was “facilitates basal synaptic transmission and LTP in vivo” and the “Slope of the SC-CA1 path fEPSPs across the I/O curves (excitability of CA1 cells)” value ([5]; 20 and 40 mg/kg versus vehicle, FIG. 16b, c) was “No differences”.
